Measured values from paper PMC7571155, “Design, Synthesis and Biological Investigation of Flavone Derivatives as Potential Multi-Receptor Atypical Antipsychotics” (Molecules, 2020).

Experiments:
[1] = tested on: MK-801-induced hyperactivity in mice; assay: MK-801-induced hyperactivity; assay type: in vivo; conditions: Mus musculus, po, MK-801 0.3 mg/kg sc, read-out: MK-80: MK-801-induced hyperactivity ED50
Description: Apomorphine-Induced Climbing [1-3].
Animals were placed in Plexiglas cages
for evaluating locomotor activity.
5.3 Catalepsy Test [1-3].
Catalepsy was evaluated on a metal
(§1) A mean immobility score of 30 s was used
(§2) as the criterion for the presence of catalepsy.

in vivo [2] = conditions: mouse, po
[3] = tested on: APO-induced climbing in mice; assay: Apomorphine-induced climbing; assay type: in vivo; conditions: Mus musculus, po, apomorphine 1.0 mg/kg sc
Description: Apomorphine-Induced Climbing [1-3].
Animals were placed in Plexiglas cages
for evaluating locomotor activity.
5.3 Catalepsy Test [1-3].
Catalepsy was evaluated on a metal
as §1, §2

α1 receptor = α1 receptor radioligand binding (3H-prazosin); conditions: rat cerebral cortex, mean ± SEM of three experiments, read-out: Receptor Affinity Ki ± SEM α1
D2 receptor = D2 receptor (Rattus norvegicus, UniProt P61169); assay: D2 receptor radioligand binding (3H-spiperone); conditions: for Ki: Receptor Affinity Ki ± SEM D2, rat striatum, 3H-spiperone, mean ± SEM of three experiments; for potency ratio between D2 and 5-HT1A, 5-HT2A: ratio of Ki values
H1 receptor = H1 receptor (Cavia porcellus, UniProt P31389); assay: H1 receptor radioligand binding (3H-mepyramine); conditions: guinea pig cerebellum, mean ± SEM of three experiments, read-out: Receptor Affinity Ki ± SEM H1
5-HT2A receptor [4] = target: T1, 5-HT2A receptor (Homo sapiens, UniProt P28223); assay: Intrinsic activity, FLIPR calcium assay, HEK293/5-HT2A; assay type: cell-based; conditions: for inhibition at 10 µM: HEK293, read-out: Inhibition (10 μM, %), 5-HT2A, antagonist mode, 10 μM, n = 3
T1 construct: expressed in transfected cells; host or cells: HEK293

5-HT1A receptor = target: T2, 5-HT1A receptor (Homo sapiens, UniProt P08908); assay: Intrinsic activity, FLIPR calcium assay, HEK293/5-HT1A; assay type: cell-based; conditions: antagonist mode
T2 construct: expressed in transfected cells; host or cells: HEK293
T2 sequence (P08908 1-422): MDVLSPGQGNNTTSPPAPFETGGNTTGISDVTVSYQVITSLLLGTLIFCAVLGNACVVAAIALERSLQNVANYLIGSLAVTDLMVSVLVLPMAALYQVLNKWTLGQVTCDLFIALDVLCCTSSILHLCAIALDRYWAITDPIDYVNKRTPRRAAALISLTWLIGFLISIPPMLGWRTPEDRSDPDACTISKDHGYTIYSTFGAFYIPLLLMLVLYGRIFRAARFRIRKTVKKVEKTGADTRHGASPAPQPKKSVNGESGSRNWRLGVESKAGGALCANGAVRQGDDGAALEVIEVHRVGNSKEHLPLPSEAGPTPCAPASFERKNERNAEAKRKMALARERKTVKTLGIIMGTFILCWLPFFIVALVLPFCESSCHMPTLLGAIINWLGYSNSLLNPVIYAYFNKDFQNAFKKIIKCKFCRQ

D2L receptor = target: T3, D2L receptor (Homo sapiens, UniProt P14416); assay: Intrinsic activity, FLIPR calcium assay, HEK293/D2L; assay type: cell-based
T3 construct: expressed in transfected cells; host or cells: HEK293

D3 receptor [5] = target: T4, D3 receptor (Homo sapiens, UniProt P35462); assay: Intrinsic activity, FLIPR calcium assay, HEK293/ACTOne D3; assay type: cell-based
T4 construct: expressed in transfected cells; host or cells: HEK293/ACTOne

hERG potassium channels = hERG potassium channels (Homo sapiens, UniProt Q12809); assay: hERG potassium channel block, patch clamp in HEK cells
5-HT2C receptor = target: T5, 5-HT2C receptor (Rattus norvegicus, UniProt P08909); assay: 5-HT2C receptor radioligand binding (3H-mesulergine); conditions: rat brain cortex, mean ± SEM of three experiments, read-out: Receptor Affinity Ki ± SEM 5-HT2C
T5 sequence (P08909 33-460): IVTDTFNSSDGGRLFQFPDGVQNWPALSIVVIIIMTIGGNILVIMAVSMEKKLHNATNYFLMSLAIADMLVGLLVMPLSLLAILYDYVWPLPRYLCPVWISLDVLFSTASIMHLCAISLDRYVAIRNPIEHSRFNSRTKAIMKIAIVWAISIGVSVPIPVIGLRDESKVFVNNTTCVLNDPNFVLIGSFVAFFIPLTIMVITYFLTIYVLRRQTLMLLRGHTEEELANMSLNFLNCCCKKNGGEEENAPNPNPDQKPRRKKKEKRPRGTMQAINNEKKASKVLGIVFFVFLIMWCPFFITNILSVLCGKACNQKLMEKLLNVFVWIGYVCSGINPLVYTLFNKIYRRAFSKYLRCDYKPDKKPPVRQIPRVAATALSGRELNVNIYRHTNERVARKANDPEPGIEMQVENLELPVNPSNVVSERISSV

in vivo [6] = conditions: mouse
D3 receptor [7] = target: D3 receptor (Rattus norvegicus, UniProt P19020); assay: D3 receptor radioligand binding (3H-7-OH-DPAT)
5-HT2A receptor [8] = target: 5-HT2A receptor (Rattus norvegicus, UniProt P14842); assay: 5-HT2A receptor radioligand binding (3H-ketanserin); conditions: Receptor Affinity Ki ± SEM 5-HT2A
[9] = rat brain cortex, 3H-ketanserin, mean ± SEM of three experiments

Chain of 5-HT2A receptor (Rattus norvegicus, UniProt P14842) (P14842 whole entry): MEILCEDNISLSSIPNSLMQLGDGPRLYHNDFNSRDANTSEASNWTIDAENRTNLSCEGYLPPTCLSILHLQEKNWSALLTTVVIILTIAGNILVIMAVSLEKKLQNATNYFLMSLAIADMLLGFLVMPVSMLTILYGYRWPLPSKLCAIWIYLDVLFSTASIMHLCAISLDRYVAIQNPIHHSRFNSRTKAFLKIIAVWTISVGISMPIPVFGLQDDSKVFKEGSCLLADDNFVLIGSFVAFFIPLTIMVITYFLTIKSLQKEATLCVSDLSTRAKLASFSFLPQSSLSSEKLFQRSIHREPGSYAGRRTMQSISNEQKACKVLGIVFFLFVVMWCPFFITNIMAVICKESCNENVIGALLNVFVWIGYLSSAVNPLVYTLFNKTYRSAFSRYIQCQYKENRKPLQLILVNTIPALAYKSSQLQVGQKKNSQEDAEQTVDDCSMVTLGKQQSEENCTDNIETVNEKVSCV
Chain of H1 receptor (P31389 whole entry): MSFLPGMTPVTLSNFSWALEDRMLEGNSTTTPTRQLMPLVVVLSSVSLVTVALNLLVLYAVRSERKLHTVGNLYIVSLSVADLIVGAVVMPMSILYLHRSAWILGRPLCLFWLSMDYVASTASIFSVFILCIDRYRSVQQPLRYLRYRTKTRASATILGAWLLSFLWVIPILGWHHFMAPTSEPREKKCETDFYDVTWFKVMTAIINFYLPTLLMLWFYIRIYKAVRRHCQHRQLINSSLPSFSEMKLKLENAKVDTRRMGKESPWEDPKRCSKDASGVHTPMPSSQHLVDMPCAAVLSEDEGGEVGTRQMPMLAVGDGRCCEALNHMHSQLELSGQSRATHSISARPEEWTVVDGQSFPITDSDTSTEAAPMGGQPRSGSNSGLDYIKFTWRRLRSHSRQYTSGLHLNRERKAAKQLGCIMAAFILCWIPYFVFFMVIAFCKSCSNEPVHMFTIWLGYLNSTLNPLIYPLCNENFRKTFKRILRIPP
T1 sequence (P28223 whole entry): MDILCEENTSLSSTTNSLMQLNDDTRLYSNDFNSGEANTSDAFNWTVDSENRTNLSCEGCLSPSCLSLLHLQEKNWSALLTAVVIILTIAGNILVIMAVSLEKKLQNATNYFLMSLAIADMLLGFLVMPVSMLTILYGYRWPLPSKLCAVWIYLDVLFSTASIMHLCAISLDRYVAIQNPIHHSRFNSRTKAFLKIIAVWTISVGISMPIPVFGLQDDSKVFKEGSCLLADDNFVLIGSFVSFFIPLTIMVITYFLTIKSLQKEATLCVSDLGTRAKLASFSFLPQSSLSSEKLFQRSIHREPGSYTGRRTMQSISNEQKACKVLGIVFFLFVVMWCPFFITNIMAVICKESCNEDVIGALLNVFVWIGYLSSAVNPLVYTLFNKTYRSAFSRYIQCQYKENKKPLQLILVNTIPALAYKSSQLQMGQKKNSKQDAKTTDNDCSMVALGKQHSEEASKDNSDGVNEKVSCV
Chain of D2 receptor (P61169 whole entry): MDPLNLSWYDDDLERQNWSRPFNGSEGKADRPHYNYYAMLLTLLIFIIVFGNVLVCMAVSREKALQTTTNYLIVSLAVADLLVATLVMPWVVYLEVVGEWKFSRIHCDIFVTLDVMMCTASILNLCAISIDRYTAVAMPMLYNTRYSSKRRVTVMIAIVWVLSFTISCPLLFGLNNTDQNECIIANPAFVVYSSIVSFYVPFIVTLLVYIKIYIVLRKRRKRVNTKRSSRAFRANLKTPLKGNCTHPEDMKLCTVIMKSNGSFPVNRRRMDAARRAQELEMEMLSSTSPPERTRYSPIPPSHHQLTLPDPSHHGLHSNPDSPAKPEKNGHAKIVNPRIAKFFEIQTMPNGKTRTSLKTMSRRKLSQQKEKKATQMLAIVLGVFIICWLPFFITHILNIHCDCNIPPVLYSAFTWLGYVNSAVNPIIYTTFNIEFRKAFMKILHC
Chain of D3 receptor (Rattus norvegicus, UniProt P19020) (P19020 whole entry): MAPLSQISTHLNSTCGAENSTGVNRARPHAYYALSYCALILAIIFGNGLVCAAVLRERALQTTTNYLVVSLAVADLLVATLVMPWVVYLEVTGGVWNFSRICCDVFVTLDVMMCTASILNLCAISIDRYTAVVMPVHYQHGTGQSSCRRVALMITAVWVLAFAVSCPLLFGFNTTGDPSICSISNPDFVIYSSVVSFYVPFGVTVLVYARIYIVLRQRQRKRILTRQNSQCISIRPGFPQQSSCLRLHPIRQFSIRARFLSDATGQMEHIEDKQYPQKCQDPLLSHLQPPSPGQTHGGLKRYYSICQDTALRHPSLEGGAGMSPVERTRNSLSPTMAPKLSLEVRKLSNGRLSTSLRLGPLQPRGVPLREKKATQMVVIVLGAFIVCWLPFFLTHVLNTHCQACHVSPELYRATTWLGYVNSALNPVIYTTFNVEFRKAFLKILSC
Chain of hERG potassium channels (Q12809 whole entry): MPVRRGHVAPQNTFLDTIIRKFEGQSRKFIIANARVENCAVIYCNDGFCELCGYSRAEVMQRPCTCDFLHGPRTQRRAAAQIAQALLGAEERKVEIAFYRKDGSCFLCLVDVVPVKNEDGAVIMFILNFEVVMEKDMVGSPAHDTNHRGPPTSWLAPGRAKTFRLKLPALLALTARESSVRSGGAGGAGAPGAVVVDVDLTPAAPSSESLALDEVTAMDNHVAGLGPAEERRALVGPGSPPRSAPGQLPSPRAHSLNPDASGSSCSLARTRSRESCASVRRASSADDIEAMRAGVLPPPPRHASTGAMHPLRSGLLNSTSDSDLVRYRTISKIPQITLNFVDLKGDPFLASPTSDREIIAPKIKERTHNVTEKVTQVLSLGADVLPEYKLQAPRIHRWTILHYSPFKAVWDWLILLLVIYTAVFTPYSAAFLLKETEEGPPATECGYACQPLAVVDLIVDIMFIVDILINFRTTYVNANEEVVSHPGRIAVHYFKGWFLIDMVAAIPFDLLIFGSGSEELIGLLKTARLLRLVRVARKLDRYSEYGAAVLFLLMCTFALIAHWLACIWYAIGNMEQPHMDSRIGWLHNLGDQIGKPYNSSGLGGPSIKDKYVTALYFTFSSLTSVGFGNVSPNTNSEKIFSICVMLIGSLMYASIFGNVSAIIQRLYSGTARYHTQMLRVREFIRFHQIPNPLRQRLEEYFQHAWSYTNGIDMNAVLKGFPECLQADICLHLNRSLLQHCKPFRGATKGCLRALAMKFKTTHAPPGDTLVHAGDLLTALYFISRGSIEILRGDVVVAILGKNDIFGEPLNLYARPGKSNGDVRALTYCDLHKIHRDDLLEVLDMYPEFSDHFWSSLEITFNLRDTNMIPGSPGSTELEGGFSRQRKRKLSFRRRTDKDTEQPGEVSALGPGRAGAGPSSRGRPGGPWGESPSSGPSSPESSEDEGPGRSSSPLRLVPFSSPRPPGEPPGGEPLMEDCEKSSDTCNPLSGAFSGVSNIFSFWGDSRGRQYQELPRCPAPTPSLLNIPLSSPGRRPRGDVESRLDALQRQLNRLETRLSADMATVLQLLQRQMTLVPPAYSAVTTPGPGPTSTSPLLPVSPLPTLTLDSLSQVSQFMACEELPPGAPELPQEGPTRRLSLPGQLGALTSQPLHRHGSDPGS
T3 sequence (P14416 whole entry): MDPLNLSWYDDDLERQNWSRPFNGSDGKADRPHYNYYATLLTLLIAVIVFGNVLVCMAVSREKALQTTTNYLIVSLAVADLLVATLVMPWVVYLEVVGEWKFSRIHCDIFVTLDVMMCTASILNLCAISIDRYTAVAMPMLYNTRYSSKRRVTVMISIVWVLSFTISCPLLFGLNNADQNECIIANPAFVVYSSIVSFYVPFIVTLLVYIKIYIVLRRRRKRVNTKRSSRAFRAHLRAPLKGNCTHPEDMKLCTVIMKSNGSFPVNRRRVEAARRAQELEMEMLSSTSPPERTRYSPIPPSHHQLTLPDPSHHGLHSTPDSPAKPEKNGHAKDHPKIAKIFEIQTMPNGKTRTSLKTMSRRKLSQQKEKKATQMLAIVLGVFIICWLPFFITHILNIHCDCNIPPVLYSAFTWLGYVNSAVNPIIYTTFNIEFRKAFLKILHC
T4 sequence (P35462 whole entry): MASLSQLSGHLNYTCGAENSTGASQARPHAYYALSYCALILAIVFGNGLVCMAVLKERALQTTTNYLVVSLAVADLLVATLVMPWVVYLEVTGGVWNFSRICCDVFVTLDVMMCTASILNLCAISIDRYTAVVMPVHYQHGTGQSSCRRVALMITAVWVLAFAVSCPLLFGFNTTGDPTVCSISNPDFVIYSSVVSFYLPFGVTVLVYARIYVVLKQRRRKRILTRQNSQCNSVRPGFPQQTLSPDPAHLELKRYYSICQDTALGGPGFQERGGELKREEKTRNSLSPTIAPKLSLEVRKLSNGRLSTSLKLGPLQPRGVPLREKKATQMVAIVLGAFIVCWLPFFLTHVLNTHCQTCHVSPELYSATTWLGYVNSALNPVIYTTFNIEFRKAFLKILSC

SMILES	ED50 [1]	ED50 (in vivo [2])	ED50 [3]	Ki (α1 receptor)	Ki (D2 receptor)	Ki (H1 receptor)	inhibition at 10 µM (5-HT2A receptor [4])	IC50 (hERG potassium channels)	Ki (5-HT2C receptor)	Ki (D3 receptor [7])	potency ratio between D2 and 5-HT1A, 5-HT2A (D2 receptor)	melting point	Ki (5-HT2A receptor [8]; [9])	other results
CN1CCN(C2=Nc3cc(Cl)ccc3Nc3ccccc32)CC1 [Clozapine, reference compound]	2.28 mg/kg	50 mg/kg	17.9 mg/kg											
CC1(C)CC(=O)c2ccc(OCCCCN3CCC(c4noc5cc(F)ccc45)CC3)cc2O1 [Compound 6j, 7-(4-(4-(6-Fluorobenzo[d]isoxazol-3-yl)piperidin-1-yl)butoxy)-2,2-dimethylchroman-4-one]	0.16 mg/kg	56.8 mg/kg	0.19 mg/kg	237 ± 86.4 nM	12.1 ± 1.5 nM	939 ± 101 nM	> 90%	3770 ± 298 nM	566 ± 75.4 nM	25.4 ± 3.1 nM				ED50 (in vivo [2]; Kun Ming (KM)): 58.4 mg/kg; IC50 (5-HT2A receptor [4]): 195 nM; IC50 (5-HT1A receptor; 5-HT1A): 201 nM; inhibition at 10 µM (5-HT1A receptor; HEK293, 5-HT1A, 10 μM, n = 3): > 90%; IC50 (D2L receptor): 8.9 nM; inhibition at 10 µM (D2L receptor; HEK293, read-out: Inhibition (10 μM, %), D2L, antagonist mode, 10 μM, n = 3): > 90%; IC50 (D3 receptor [5]): 31.5 nM; inhibition at 10 µM (D3 receptor [5]; HEK293, read-out: Inhibition (10 μM, %), D3, antagonist mode, 10 μM, n = 3): > 90%; LD50 at 24 h (in vivo [6]): > 2000 mg/kg; Ki (5-HT2A receptor [8]): 3.2 ± 0.4 nM
O=C1CC2(CCCC2)Oc2cc(OCCCCN3CCC(c4noc5cc(F)ccc45)CC3)ccc21 [Compound 9d, 7-(4-(4-(6-Fluorobenzo[d]isoxazol-3-yl)piperidin-1-yl)butoxy)spiro[chromane-2,1′-cyclopentan]-4-one]				162 ± 57.1 nM	15.7 ± 1.9 nM	784 ± 98.3 nM		3380 ± 352 nM	426 ± 47.8 nM	42.6 ± 5.3 nM	less than 5	103 to 105 °C	8.5 ± 0.7 nM	
O=C1CC2(CCCCC2)Oc2cc(OCCCN3CCC(c4noc5cc(F)ccc45)CC3)ccc21 [Compound 9g, 7-(3-(4-(6-Fluorobenzo[d]isoxazol-3-yl)piperidin-1-yl)propoxy)spiro[chromane-2,1′-cyclohexan]-4-one]				138 ± 39.8 nM	18.4 ± 1.8 nM	909 ± 78.5 nM		3020 ± 291 nM	401 ± 55.6 nM	35.2 ± 2.8 nM	less than 5	96 to 98 °C	9.1 ± 1.1 nM	
O=C1CC2(CCCCC2)Oc2cc(OCCCCN3CCC(c4noc5cc(F)ccc45)CC3)ccc21 [Compound 9h, 7-(4-(4-(6-Fluorobenzo[d]isoxazol-3-yl)piperidin-1-yl)butoxy)spiro[chromane-2,1′-cyclohexan]-4-one]				102 ± 50.6 nM	17 ± 2.3 nM	819 ± 91.8 nM		3980 ± 411 nM	528 ± 68.5 nM	38.6 ± 3.7 nM			7.3 ± 0.4 nM	
O=C(c1ccc(F)cc1)C1CCN(CCn2c(=O)[nH]c3ccccc3c2=O)CC1 [ketanserin, reference compound]							98.2 ± 2.6%							
